Test results reported in patent US10793575B2, “Oxoisoquinoline derivatives” (CARNA BIOSCIENCES, INC., priority 2016, dated 2020).
Values belong to the compound of their own block, whether it stands above or below them.

What was measured:
[1] = target: wild type BTK [BTK(WT)] (Homo sapiens (Human), UniProt Q06187); assay: C481S Mutant BTK Inhibitory Activity Test, wild type BTK (mobility shift assay); format: biochemical; settings: 120 μM ATP
Method: (§1) The kinase activity was measured using QuickScout Screening Assist (trademark) MSA (commercially available kit manufactured by Carna Biosciences, Inc.) by mobility shift assay (MSA) method. The substrate of the kinase reaction was an FITC-labeled SRCtide peptide included in the kit. […] The 10 mM solution of the test compound in DMSO was further diluted with DMSO to 10 levels of the concentration (0.00003 mM, 0.0001 mM, 0.0003 mM, 0.001 mM, 0.003 mM, 0.01 mM, 0.03 mM, 0.1 mM, 0.3 mM, 1 mM), each of which was subjected to a 25-fold dilution with the assay buffer to obtain the drug solutions (4% DMSO solutions).
(§2) 5 μL of the drug solution or a control solution (4% DMSO-assay buffer), 5 μL of the substrate mixture solution, and 10 μL of the enzyme solution were mixed in the wells of a polypropylene 384-well plate and allowed to react at room temperature for 1 hour, and then quenched by adding 60 μL of the termination buffer included in the kit. Subsequently, the quantities of the substrates (S) and the phosphorylated substrate (P) in the reaction solution were measured using LabChip EZ Reader II system (manufactured by Caliper Life Sciences) according to the protocol of the assay kit.
(§3) The heights of the peaks of the isolated substrate and the phosphorylated substrate were represented as S and P, respectively, and a blank which contained the assay buffer instead of the enzyme solution was also measured.
(§4) The inhibition rate (%) of the test compound was calculated according to the following equation; Inhibition rate (%)=(1−(C−A)/(B−A))×100 • wherein, A, B and C represent P/(P+S) of the blank well, P/(P+S) of the control well and P/(P+S) of the compound-containing well, respectively.
(§5) The IC50 value was calculated via a regression analysis of the inhibition rate (%) and the test compound concentration (logarithmic value).

[2] = target: C481S mutant BTK [BTK(C481S)] (Homo sapiens (Human), UniProt Q06187, C481S); assay: C481S Mutant BTK Inhibitory Activity Test (mobility shift assay); format: biochemical; settings: for IC50: C481S mutant BTK, 100 μM ATP; for C481S mutation-resistance: IC50[BTK(C481S)]/IC50[BTK(WT)]
Method: as §1, §2, §3, §4, §5

[3] = system: OCI-Ly10 cells; assay: Proliferation-Inhibitory Test Against Diffuse Large-Cell B-Cell Lymphoma OCI-Ly10 Strain; format: cell-based; settings: Homo sapiens, 96 hours, alamarBlue
Method in brief: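 In IMDM with 20% FBS, OCI-Ly10 cells (20000 cells/well) were exposed to compound at 0.9 nM to 30000 nM (0.3% DMSO final) for 96 hours. Viability was then read with alamarBlue reagent.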

wild type BTK [BTK(WT)], sequence (Q06187 whole entry): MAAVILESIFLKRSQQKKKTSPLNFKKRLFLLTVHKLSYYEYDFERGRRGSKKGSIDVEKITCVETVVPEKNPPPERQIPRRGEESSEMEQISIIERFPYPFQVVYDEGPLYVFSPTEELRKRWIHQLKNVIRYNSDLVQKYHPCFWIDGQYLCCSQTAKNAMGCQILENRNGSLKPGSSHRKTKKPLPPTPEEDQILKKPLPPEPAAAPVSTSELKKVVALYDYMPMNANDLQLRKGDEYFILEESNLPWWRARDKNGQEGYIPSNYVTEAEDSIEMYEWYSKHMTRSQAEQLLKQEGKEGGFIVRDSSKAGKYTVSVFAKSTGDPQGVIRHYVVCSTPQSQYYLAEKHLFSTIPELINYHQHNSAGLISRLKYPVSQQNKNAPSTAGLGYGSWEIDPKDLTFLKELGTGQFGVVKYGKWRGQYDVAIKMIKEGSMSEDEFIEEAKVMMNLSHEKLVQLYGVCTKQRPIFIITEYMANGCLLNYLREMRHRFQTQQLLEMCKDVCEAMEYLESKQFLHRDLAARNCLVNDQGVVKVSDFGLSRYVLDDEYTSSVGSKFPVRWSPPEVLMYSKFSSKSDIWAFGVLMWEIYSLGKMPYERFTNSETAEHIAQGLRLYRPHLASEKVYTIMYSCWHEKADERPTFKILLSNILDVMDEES
C481S mutant BTK [BTK(C481S)], sequence (Q06187 whole entry C481S): as the sequence (Q06187 whole entry) above, with C481S counted along it

IC50 [1]: 0.94 nM | IC50 [2]: 1.49 nM | C481S mutation-resistance [2]: 1.6 | IC50 [3]: 7 nM
SMILES: Nc1nc(-c2cccc(-n3ccc4cc(C5CC5)cc(F)c4c3=O)c2CO)c2cc(C3=CCN(C(=O)N4CCCC4)CC3)[nH]c2n1 [Example 88, 2-(3-{2-amino-6-[1-(pyrrolidine-1-carbonyl)-1,2,3,6-tetrahydropyridin-4-yl]-7H-pyrrolo[2,3-d]pyrimidin-4-yl}-2-(hydroxymethyl)phenyl)-6-cyclopropyl-8-fluoroisoquinolin-1(2H)-one]

IC50 [1]: 0.25 nM | IC50 [2]: 0.58 nM | C481S mutation-resistance [2]: 2.3 | IC50 [3]: 8 nM
SMILES: Nc1nc(-c2cccc(-n3ccc4cc(C5CC5)cc(F)c4c3=O)c2CO)c2cc(C3=CCS(=O)(=O)CC3)[nH]c2n1 [Example 83, 2-{3-[2-amino-6-(1,1-dioxido-3,6-dihydro-2H-thiopyran-4-yl)-7H-pyrrolo[2,3-d]pyrimidin-4-yl]-2-(hydroxymethyl)phenyl}-6-cyclopropyl-8-fluoroisoquinolin-1(2H)-one]

IC50 [1]: 0.47 nM | IC50 [2]: 1.1 nM | C481S mutation-resistance [2]: 2.1 | IC50 [3]: 38 nM
SMILES: CCN1CC=C(c2cc3c(-c4cccc(-n5ccc6cc(C7CC7)cc(F)c6c5=O)c4CO)nc(N)nc3[nH]2)CC1 [Example 91, 2-{3-[2-amino-6-(1-ethyl-1,2,3,6-tetrahydropyridin-4-yl)-7H-pyrrolo[2,3-d]pyrimidin-4-yl]-2-(hydroxymethyl)phenyl}-6-cyclopropyl-8-fluoroisoquinolin-1(2H)-one]

IC50 [1]: 0.34 nM | IC50 [2]: 0.7 nM | C481S mutation-resistance [2]: 2.1 | IC50 [3]: 10 nM
SMILES: CS(=O)(=O)N1CC=C(c2cc3c(-c4cccc(-n5ccc6cc(C7CC7)cc(F)c6c5=O)c4CO)nc(N)nc3[nH]2)CC1 [Example 89, 2-(3-{2-amino-6-[1-(methylsulfonyl)-1,2,3,6-tetrahydropyridin-4-yl]-7H-pyrrolo[2,3-d]pyrimidin-4-yl}-2-(hydroxymethyl)phenyl)-6-cyclopropyl-8-fluoroisoquinolin-1(2H)-one]

Second part, the compound before the results:

SMILES: Nc1nc(-c2cccc(-n3ccc4cc(C5CC5)cc(F)c4c3=O)c2CO)c2cc(-c3ccc(CN4CCCCC4)cc3)[nH]c2n1 [Example 54, 2-(3-{2-amino-6-[4-(piperidin-1-ylmethyl)phenyl]-7H-pyrrolo[2,3-d]pyrimidin-4-yl}-2-(hydroxymethyl)phenyl)-6-cyclopropyl-8-fluoroisoquinolin-1(2H)-one]
IC50 [1]: 0.58 nM | IC50 [2]: 0.86 nM | C481S mutation-resistance [2]: 1.5 | IC50 [3]: 17 nM

SMILES: CNc1cc(-c2cc3c(-c4cccc(-n5ccc6cc(C7CC7)cc(F)c6c5=O)c4CO)nc(N)nc3[nH]2)ccn1 [Example 50, 2-(3-{2-amino-6-[2-(methylamino)pyridin-4-yl]-7H-pyrrolo[2,3-d]pyrimidin-4-yl}-2-(hydroxymethyl)phenyl)-6-cyclopropyl-8-fluoroisoquinolin-1(2H)-one]
IC50 [1]: 0.77 nM | IC50 [2]: 1.6 nM | C481S mutation-resistance [2]: 2.1 | IC50 [3]: 52 nM

SMILES: CCN(CC)Cc1ccc(-c2cc3c(-c4cccc(-n5ccc6cc(C7CC7)cc(F)c6c5=O)c4CO)nc(N)nc3[nH]2)cc1 [Example 52, 2-[3-(2-amino-6-{4-[(diethylamino)methyl]phenyl}-7H-pyrrolo[2,3-d]pyrimidin-4-yl)-2-(hydroxymethyl)phenyl]-6-cyclopropyl-8-fluoroisoquinolin-1(2H)-one]
IC50 [1]: 0.43 nM | IC50 [2]: 0.76 nM | C481S mutation-resistance [2]: 1.8 | IC50 [3]: 15 nM

SMILES: Nc1nc(-c2cccc(-n3ccc4cc(C5CC5)cc(F)c4c3=O)c2CO)c2cc(-c3ccc(CN4CCNC(=O)C4)cc3)[nH]c2n1 [Example 66, 2-[3-(2-amino-6-{4-[(3-oxopiperazin-1-yl)methyl]phenyl}-7H-pyrrolo[2,3-d]pyrimidin-4-yl)-2-(hydroxymethyl)phenyl}-6-cyclopropyl-8-fluoroisoquinolin-1(2H)-one]
IC50 [1]: 0.47 nM | IC50 [2]: 0.93 nM | C481S mutation-resistance [2]: 2 | IC50 [3]: 18 nM
